We go through two molecules from patent publication US12492195B2, “Preparation method for and crystal form of 3-aryloxy-3-five-membered heteroaryl-propylamine compound” (Zhangzhou Pien Tze Huang Pharmaceutical Co., Ltd., priority 2020, dated 2025).

One series relates to mice. In words: ICS model in mice (fibromyalgia), mechanical hyperalgesia test. To be noted: 10 mg/kg oral. Format: in vivo. On the procedure:
Male C57BUJ6 mice weighing 18-22 g at the beginning of experiment were selected. Each cage had 4 mice which were allowed to feed and drink water freely. Each experimental group had 12 mice, and the experimental mice were labeled by tail labeling method.
Day 0: At 4:30 pm, the mice were put in a plexiglass box with stainless steel mesh, and then the plexiglass box was put into a cold storage (4±2° C.) overnight. The mice were allowed to feed freely and agar was used to replace water.
Day 1: At 10:00 am, the mice were delivered to room temperature (24±2° C.) environment for 30 min, and then the mice were delivered to the cold storage for 30 min. The above steps were repeated until 4:30 pm, and the mice were put into the cold storage overnight.
The compounds were administered orally according to the schedule of experiment, and the dosage was 10 mg/kg.
On the fourth day after modeling, the pre-administration mechanical hyperalgesia test was performed on the animals. Animals with PWT value greater than 0.5 g were excluded and were not used for experiments. On the fifth day after modeling, the animals were tested for mechanical hyperalgesia test at 0.5 h, 1 h, and 2 h after the administration of compounds.
The mice were individually placed in a plexiglass box with a grid on the bottom of the box to ensure that the mice paw could be tested. The mice were allowed to adapt for 15 min before the test. After the adaptation was completed, the test fiber was used to test at the center of the left hind paw of mice. The test fiber comprised 8 test strengths: 2.36(0.02 g), 2.44(0.04 g), 2.83(0.07 g), 3.22(0.16 g), 3.61(0.4 g), 3.84(0.6 g), 4.08(1 g), and 4.17(1.4 g). During the test, the test fiber was pressed vertically against the skin and forced to bend for 6-8 s with a 5 s interval between each test. During the test, rapid withdrawal of animal paw was recorded as pain response. When the test fiber was removed from animal skin, the withdrawal of animal paw was also recorded as pain response. If animal moved or walked, the pain response was not recorded, and the test was repeated. In the test. 3.22(0.16 g) was used firstly. […] The maximum strength of tested fiber was 4.17(1.4 g).
Mechanical hyperalgesia was calculated by using the following formula: 50% response threshold (g)=(10^(Xf+k))/10,000; • Xf=the final test fiber value used in the test; • k=table value (Chaplan et al., 1994, page 62); • =mean difference 5. Data Collection and Analysis

The nature of series [1]: Solubility of free compound Ic-1 in different solvents. The note with it: thermodynamic from solid, room temperature. The series is classed as physicochemical. On the procedure:
The free base of the compound of formula Ic-1 was used as the starting material to obtain other salt forms. The free base of the compound of formula Ic-1 was an oily substance, and the solubility of the free base of the compound of formula Ic-1 in 11 common solvents was tested at room temperature. In the experiment, about 2 mg of compound Ic-1 oily sample was weighed into a 3-ml vial, and then the corresponding solvent was gradually added (50, 50, 200, 700 μLL) and shaken until the solution was clear. If the sample was still not dissolved after adding the solvent to 1 ml, the solvent was not added any more. The rough solubility range calculated according to the mass of the solid sample, the volume of the added solvent and the observed dissolution phenomenon was shown in Table 8.

In another series the target is T1, TRPV4 (Homo sapiens, UniProt Q9HBA0).
T1 construct: expressed in transfected cells
In words: Manual patch clamp detection on TRPV4 channel. Format: cell-based. The note with it: 10.00 μM, HEK293, GSK1016790A-induced current. On the procedure:
TRPV4 cells were cultured in a cell culture dish with a diameter of 35 mm, placed in an incubator in 5% CO2 at 37° C., and passaged at a ratio of 1:5 every 48 hours. The formula of medium was 90% DMEM (Invitrogen), 10% fetal bovine serum (Gibco), 2 mM L-glutamine, 50 μg/mL Hygromycin B (Invitrogen) and 5 μg/mL Blasticidine HCl (Invitrogen). Before electrophysiological patch clamp experiment, the cell culture medium was replaced with medium containing 1 μg/mL doxycycline for at least 16 hours to induce the expression of TRPV4.
On the day of the experiment, the cell culture medium was aspirated, the cell were rinsed once with extracellular fluid, and then 0.25% Trypsin-EDTA (Invitrogen) solution was added, and digested at room temperature for 1-2 minutes. The digestion solution was aspirated, the cell were resuspended with extracellular fluid, and transferred to the experimental dish for electrophysiological recording for further experiment. […]
HEK293 cells stably expressing TRP channels, the corresponding agonist-induced channel current was recorded by whole-cell patch clamp technique at room temperature. […] Clamp voltages and data recording were controlled and recorded by a computer using pClamp 11 software with the sampling frequency of 10 kHz and the filtering frequency of 2 kHz. […] After the current was evoked for more than 40 s and no attenuation was determined, the dosing process started. […]
Background: In patch-clamp work, channel activity is measured electrically.

SMILES strings stand for the structures. In brackets after ≈: the same amount, converted by molar mass.

T1 sequence (Q9HBA0 whole entry, species assumed): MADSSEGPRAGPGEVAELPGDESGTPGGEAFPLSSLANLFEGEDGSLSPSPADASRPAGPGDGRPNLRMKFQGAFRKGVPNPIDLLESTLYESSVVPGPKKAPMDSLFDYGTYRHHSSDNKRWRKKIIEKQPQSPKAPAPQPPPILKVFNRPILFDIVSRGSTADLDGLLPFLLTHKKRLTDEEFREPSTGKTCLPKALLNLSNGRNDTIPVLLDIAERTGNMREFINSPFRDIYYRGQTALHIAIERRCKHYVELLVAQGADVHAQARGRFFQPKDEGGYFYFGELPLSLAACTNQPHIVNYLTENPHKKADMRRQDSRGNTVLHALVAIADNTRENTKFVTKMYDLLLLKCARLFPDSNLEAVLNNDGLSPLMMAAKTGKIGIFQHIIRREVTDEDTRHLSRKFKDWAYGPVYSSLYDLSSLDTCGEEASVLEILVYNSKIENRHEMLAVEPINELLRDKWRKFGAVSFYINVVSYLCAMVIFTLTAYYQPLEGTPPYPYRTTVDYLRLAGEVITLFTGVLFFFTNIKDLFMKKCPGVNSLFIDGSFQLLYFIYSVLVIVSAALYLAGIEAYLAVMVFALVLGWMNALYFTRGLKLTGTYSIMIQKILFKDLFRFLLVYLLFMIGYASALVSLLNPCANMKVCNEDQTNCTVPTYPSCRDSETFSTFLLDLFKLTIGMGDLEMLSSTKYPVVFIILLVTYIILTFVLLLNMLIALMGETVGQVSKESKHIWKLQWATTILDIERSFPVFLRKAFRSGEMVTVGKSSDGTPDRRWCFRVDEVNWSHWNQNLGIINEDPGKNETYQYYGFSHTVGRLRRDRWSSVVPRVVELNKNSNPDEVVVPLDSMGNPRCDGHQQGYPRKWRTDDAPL

Turning to `CNCC[C@H](Oc1cccc2ccccc12)c1cccs1` [Duloxetine (S configuration), Duloxetine, reference compound], the “PWT(g) Mean ± SD” value is recorded as 0.416 ± 0.140 g with mice (0.5 h after administration), 0.648 ± 0.155 g in the series on mice (1 h after administration) and 0.530 ± 0.235 g with mice (2 h after administration).

As a reminder, the solubility is how much of the substance goes into solution per volume. Usually inhibition stands for how much of the control response was suppressed. Regarding `CNCC[C@H](Oc1cccc2ccoc12)c1cccs1` [IC-1, (S)-3-(Benzofuran-7-yloxy)-N-methyl-3-(thiophen-2-yl)propan-1-amine], the solubility was more than 38 mg/mL in series [1] (aqueous with cosolvent or surfactant or cyclodextrin, Methanol:Water (1:1)); more than 46 mg/mL in series [1] (organic solvent or mixture, Acetone); more than 54 mg/mL in series [1] (organic solvent or mixture, Acetonitrile); more than 38 mg/mL in series [1] (organic solvent or mixture, Dimethyl sulfoxide); more than 42 mg/mL in series [1] (organic solvent or mixture, Ethanol); more than 36 mg/mL in series [1] (organic solvent or mixture, Ethyl acetate). In addition, the solubility in series [1] (organic solvent or mixture, Methanol) was more than 38 mg/mL; in series [1] (organic solvent or mixture, Methyl isobutyl ketone), more than 42 mg/mL; in series [1] (organic solvent or mixture, Tetrahydrofuran), more than 40 mg/mL; in series [1] (organic solvent or mixture, n-Heptane) it was 7.6 to 23 mg/mL (≈ 26.4 to 80 mM); in series [1] (Water), less than 2 mg/mL. Besides, on TRPV4, 10 µM produced 4.68% inhibition. Moreover, the figures for the “PWT(g) Mean ± SD” value with mice (0.5 h after administration), in the series with mice (1 h after administration) and in the series on mice (2 h after administration) were 0.482 ± 0.199 g, 0.773 ± 0.261 g and 0.607 ± 0.160 g, respectively.
